Data published in patent US20240158392A1 (Janssen Biotech, Inc., priority 2021, published 2024).
Like-named read-outs stand apart in the source and are kept apart here.

Molecular target: SIK2 (Homo sapiens, UniProt Q9H0K1)
Test: SIK2 Enzymatic Assay High Version 2 (High ATP)
Type: biochemical
Outline: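 At room temperature, enzyme (6 nM, 2× final) was preincubated with compound for 30 min, then 6 mM ATP and 400 μM HDAC5tide (both 2× final) were added for 2 h. ADP formed was measured by ADP-Glo Max (2 h reagent, 1 h detection) using luminescence.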

[1] = enzyme 6 nM, 6 mM ATP and 400 μM HDAC5tide (each 2× final concentration), 30 minutes pre-incubation, 2 hours, ADP-Glo Max luminescence, read-out: SIK2 high ATP IC50 (μM) (Test Example 2)

Sequence of SIK2 (Q9H0K1 whole entry, species assumed): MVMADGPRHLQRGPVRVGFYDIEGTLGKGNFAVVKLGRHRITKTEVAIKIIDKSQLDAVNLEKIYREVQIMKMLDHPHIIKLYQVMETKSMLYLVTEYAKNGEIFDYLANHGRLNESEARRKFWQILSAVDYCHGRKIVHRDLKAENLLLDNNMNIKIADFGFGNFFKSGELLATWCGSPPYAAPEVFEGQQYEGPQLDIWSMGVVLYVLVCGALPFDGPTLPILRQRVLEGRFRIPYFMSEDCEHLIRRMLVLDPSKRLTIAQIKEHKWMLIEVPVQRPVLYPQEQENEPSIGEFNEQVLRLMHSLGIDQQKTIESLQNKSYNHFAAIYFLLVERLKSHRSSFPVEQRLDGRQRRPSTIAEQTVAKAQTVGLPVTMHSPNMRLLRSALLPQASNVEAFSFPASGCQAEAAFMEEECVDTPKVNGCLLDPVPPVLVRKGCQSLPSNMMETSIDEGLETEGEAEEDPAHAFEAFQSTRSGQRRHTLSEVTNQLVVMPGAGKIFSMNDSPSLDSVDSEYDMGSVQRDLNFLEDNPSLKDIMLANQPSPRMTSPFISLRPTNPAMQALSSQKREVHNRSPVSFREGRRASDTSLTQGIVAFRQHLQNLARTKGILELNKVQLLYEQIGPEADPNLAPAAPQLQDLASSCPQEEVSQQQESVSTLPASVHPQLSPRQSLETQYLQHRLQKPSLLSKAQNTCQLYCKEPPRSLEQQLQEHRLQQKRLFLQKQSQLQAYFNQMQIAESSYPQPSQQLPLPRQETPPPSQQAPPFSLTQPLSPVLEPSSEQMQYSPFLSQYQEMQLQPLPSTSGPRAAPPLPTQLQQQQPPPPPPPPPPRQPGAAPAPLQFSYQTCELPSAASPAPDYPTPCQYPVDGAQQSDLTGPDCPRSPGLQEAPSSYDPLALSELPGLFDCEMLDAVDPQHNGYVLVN

Row | SMILES | IC50 [1] [µM] | IC50 [µM]
1 | Cc1cc(-c2ccn3nc(Nc4ccc(=O)n(C)n4)cc3c2)c(O[C@H]2C[C@H]3COC[C@@H](C2)N3)cn1 [Example 401, 2-methyl-6-[[5-[2-methyl-5-[[(1S,5R,7s)-3-oxa-9-azabicyclo[3.3.1]nonan-7-yl]oxy]-4-pyridyl]pyrazolo[1,5-a]pyridin-2-yl]amino]pyridazin-3-one] |  | 0.0161
2 | Cc1cc(-c2ccn3nc(Nc4ncccn4)cc3c2)c(O[C@H]2C[C@H]3COC[C@@H](C2)N3)cn1 [Example 402, 5-[2-methyl-5-[[(1S,5R,7s)-3-oxa-9-azabicyclo[3.3.1]nonan-7-yl]oxy]-4-pyridyl]-N-pyrimidin-2-yl-pyrazolo[1,5-a]pyridin-2-amine] |  | 0.0984
3 | Cc1cc(-c2ccn3nc(Nc4cc(C)nc(C)n4)cc3c2)c(OC[C@]2(C)CCOC2)cn1 (single isomer, unassigned) [Example 535, (*R)—N-(2,6-dimethylpyrimidin-4-yl)-5-[2-methyl-5-[(3-methyltetrahydrofuran-3-yl)methoxy]-4-pyridyl]pyrazolo[1,5-a]pyridin-2-amine] | 0.0107 | 
4 | Cc1cc(Nc2cc3cc(-c4cc(Cl)ncc4OC[C@@H]4CNCCO4)ccn3n2)nc(C)n1 [Example 497, 5-[2-chloro-5-[[(2S)-morpholin-2-yl]methoxy]-4-pyridyl]-N-(2,6-dimethylpyrimidin-4-yl)pyrazolo[1,5-a]pyridin-2-amine] | 0.0176 | 
5 | Cc1cc(-c2ccn3nc(NC(=O)C4CC4)cc3c2)c(O[C@H]2CC[C@@](O)(c3ccccc3)CC2)cn1 [Example 192, N-(5-(5-(((1r,1r)-4-hydroxy-4-phenylcyclohexyl)oxy)-2-methylpyridin-4-yl)pyrazolo[1,5-a]pyridin-2-yl)cyclopropanecarboxamide] | 0.0612 | 
6 | Cc1cnc(Nc2cc3cc(-c4cc(C)ncc4O[C@@H]4[C@@H]5CO[C@H]4CN5)ccn3n2)cn1 [Example 528, 5-[2-methyl-5-[[(1S,4S,7R)-2-oxa-5-azabicyclo[2.2.1]heptan-7-yl]oxy]-4-pyridyl]-N-(5-methylpyrazin-2-yl)pyrazolo[1,5-a]pyridin-2-amine] |  | 0.0642
7 | Cc1cc(-c2ccn3nc(Nc4cc(C)nc(C)n4)cc3c2)c(OC[C@@]2(O)CCCOC2)cn1 (single isomer, unassigned) [Example 216, (*R)-3-[[4-[2-[(2,6-dimethylpyrimidin-4-yl)amino]pyrazolo[1,5-a]pyridin-5-yl]-6-methyl-3-pyridyl]oxymethyl]tetrahydropyran-3-ol] | 0.0311 | 
8 | Cc1cc(-c2ccn3nc(NC(=O)C4CC4)cc3c2)c(OC[C@]2(F)CCNC2)cn1 (single isomer, unassigned) [Example 448, (*S)—N-[5-[5-[(3-fluoropyrrolidin-3-yl)methoxy]-2-methyl-4-pyridyl]pyrazolo[1,5-a]pyridin-2-yl]cyclopropanecarboxamide] | 0.0469 | 
9 | CCN1CC[C@@H](COc2cnc(C#N)cc2-c2ccn3nc(NC(=O)C4CC4)cc3c2)C1 [Example 616, N-[5-[2-cyano-5-[[(3R)-1-ethylpyrrolidin-3-yl]methoxy]-4-pyridyl]pyrazolo[1,5-a]pyridin-2-yl]cyclopropanecarboxamide] | 0.00103 | 
10 | Cc1cc(-c2ccn3nc(Nc4ccnc(C)n4)cc3c2)c(O[C@H]2C[C@H]3COC[C@@H](C2)N3)cn1 [Example 372, 5-[2-methyl-5-[[(1S,5R,7s)-3-oxa-9-azabicyclo[3.3.1]nonan-7-yl]oxy]-4-pyridyl]-N-(2-methylpyrimidin-4-yl)pyrazolo[1,5-a]pyridin-2-amine] |  | < 0.000847
11 | Cc1cc(Nc2cc3cc(-c4cc(OC(F)F)ncc4OCC(C)(N)C(F)(F)F)ccn3n2)nc(C)n1 (single isomer, unassigned) [Example 755, (*R)-5-[5-(2-amino-3,3,3-trifluoro-2-methyl-propoxy)-2-(difluoromethoxy)-4-pyridyl]-N-(2,6-dimethylpyrimidin-4-yl)pyrazolo[1,5-a]pyridin-2-amine] | 0.00215 | 
12 | COCc1cc(-c2ccn3nc(Nc4cc(C)nc(C)n4)cc3c2)c(OCC(C)(C)C#N)cn1 [Example 668, 3-[[4-[2-[(2,6-dimethylpyrimidin-4-yl)amino]pyrazolo[1,5-a]pyridin-5-yl]-6-(methoxymethyl)-3-pyridyl]oxy]-2,2-dimethyl-propanenitrile] | 0.319 | 
13 | Cc1cc(Nc2cc3cc(-c4cc(OCC(F)(F)F)ncc4OCC(C)(C)C#N)ccn3n2)nc(C)n1 [Example 659, 3-[[4-[2-[(2,6-dimethylpyrimidin-4-yl)amino]pyrazolo[1,5-a]pyridin-5-yl]-6-(2,2,2-trifluoroethoxy)-3-pyridyl]oxy]-2,2-dimethyl-propanenitrile] | 0.157 | 
14 | COc1cc(Nc2cc3cc(-c4cc(C)ncc4OCC(C)(C)O)ccn3n2)cc(OC(F)F)c1C(=O)NC1CC1 [Example 648, N-cyclopropyl-2-(difluoromethoxy)-4-[[5-[5-(2-hydroxy-2-methyl-propoxy)-2-methyl-4-pyridyl]pyrazolo[1,5-a]pyridin-2-yl]amino]-6-methoxy-benzamide] | 0.0887 | 
15 | CC#Cc1cc(-c2ccn3nc(NC(=O)C4CC4)cc3c2)c(O[C@H]2C[C@H](N)C2)cn1 [Example 435, N-(5-(5-((1r,3r)-3-aminocyclobutoxy)-2-(prop-1-yn-1-yl)pyridin-4-yl)pyrazolo[1,5-a]pyridin-2-yl)cyclopropanecarboxamide] | < 0.000847 | 
16 | [2H]C([2H])([2H])N1CC[C@H]1COc1cnc(C)cc1-c1ccn2nc(NC(=O)C3CC3)cc2c1 [Example 575, N-[5-[2-methyl-5-[[(2S)-1-(trideuteriomethyl)azetidin-2-yl]methoxy]-4-pyridyl]pyrazolo[1,5-a]pyridin-2-yl]cyclopropanecarboxamide] |  | 0.0703
17 | Cc1cc(-c2ccn3nc(Nc4ccn(C)n4)cc3c2)c(OCC2(N)CC(F)(F)C2)cn1 [Example 162, 5-[5-[(1-amino-3,3-difluoro-cyclobutyl)methoxy]-2-methyl-4-pyridyl]-N-(1-methylpyrazol-3-yl)pyrazolo[1,5-a]pyridin-2-amine] | 0.0196 | 

The next lines start with results.

Row | IC50 [1] [µM] | SMILES | IC50 [µM]
18 | 0.00698 | Cc1cc(-c2ccn3nc(Nc4cc(C)c(=O)n(CCOC(F)F)n4)cc3c2)c(OC[C@H]2OCC[C@@H]2O)cn1 [Example 296, 2-[2-(difluoromethoxy)ethyl]-6-[[5-[5-[[(2R,3S)-3-hydroxytetrahydrofuran-2-yl]methoxy]-2-methyl-4-pyridyl]pyrazolo[1,5-a]pyridin-2-yl]amino]-4-methyl-pyridazin-3-one] | 
19 | 0.0028 | Cc1cc(-c2ccn3nc(Nc4cc(C)nc(C)n4)cc3c2)c(OC[C@](C)(N)C(F)(F)F)cn1 (single isomer, unassigned) [Example 304, (*S)-5-[5-(2-amino-3,3,3-trifluoro-2-methyl-propoxy)-2-methyl-4-pyridyl]-N-(2,6-dimethylpyrimidin-4-yl)pyrazolo[1,5-a]pyridin-2-amine] | 
20 | 0.004 | Cc1cc(Nc2cc3cc(-c4cc(OCC#N)ncc4OCC(C)(C)C#N)ccn3n2)nc(C)n1 [Example 672, 3-[[6-(cyanomethoxy)-4-[2-[(2,6-dimethylpyrimidin-4-yl)amino]pyrazolo[1,5-a]pyridin-5-yl]-3-pyridyl]oxy]-2,2-dimethyl-propanenitrile] | 
21 | 0.00163 | O=C(Nc1cc2cc(-c3cc(OC(F)F)ncc3O[C@H]3CC[C@H](O)CC3)ccn2n1)C1CC1 [Example 723, N-[5-[2-(difluoromethoxy)-5-(4-hydroxycyclohexoxy)-4-pyridyl]pyrazolo[1,5-a]pyridin-2-yl]cyclopropanecarboxamide] | 
22 | 0.000975 | CC#Cc1cc(-c2ccn3nc(Nc4cc(C)nc(C)n4)cc3c2)c(OC[C@]23CN[C@H](CO2)C3)cn1 [Example 302, N-(2,6-dimethylpyrimidin-4-yl)-5-[5-[[(1S,4S)-5-oxa-2-azabicyclo[2.2.1]heptan-4-yl]methoxy]-2-prop-1-ynyl-4-pyridyl]pyrazolo[1,5-a]pyridin-2-amine] | 
23 | 0.0431 | Cc1cnc(OC[C@@H]2CNCCO2)c(-c2ccn3nc(NC(=O)C4CC4)cc3c2)c1 [Example 474, N-[5-[5-methyl-2-[[(2S)-morpholin-2-yl]methoxy]-3-pyridyl]pyrazolo[1,5-a]pyridin-2-yl]cyclopropanecarboxamide] | 
24 | 0.0683 | Cc1cc(-c2ccn3nc(Nc4cnn(C(C)C)c4)cc3c2)c(OC2CN(C)C2)cn1 [Example 511, N-(1-isopropylpyrazol-4-yl)-5-[2-methyl-5-(1-methylazetidin-3-yl)oxy-4-pyridyl]pyrazolo[1,5-a]pyridin-2-amine] | 
25 | 0.0049 | Cc1cc(Nc2cc3cc(-c4cc(OC(F)F)ncc4OCC(C)(C)C(=O)N(C)C)ccn3n2)nc(C)n1 [Example 728, 3-[[6-(difluoromethoxy)-4-[2-[(2,6-dimethylpyrimidin-4-yl)amino]pyrazolo[1,5-a]pyridin-5-yl]-3-pyridyl]oxy]-N,N,2,2-tetramethyl-propanamide] | 
26 | 0.0367 | Cc1cc(-c2ccn3nc(NC(=O)C4CC4)cc3c2)c(OC[C@@](C)(O)C(F)(F)F)cn1 (single isomer, unassigned) [Example 189, (*R)—N-(5-(2-methyl-5-(3,3,3-trifluoro-2-hydroxy-2-methylpropoxy)pyridin-4-yl)pyrazolo[1,5-a]pyridin-2-yl)cyclopropanecarboxamide] | 
27 | 0.0216 | CC(C)(C#N)COc1cnc(OC(F)F)cc1-c1ccn2nc(Nc3ccc4c(n3)CNCC4)cc2c1 [Example 719, 3-[[6-(difluoromethoxy)-4-[2-(5,6,7,8-tetrahydro-1,7-naphthyridin-2-ylamino)pyrazolo[1,5-a]pyridin-5-yl]-3-pyridyl]oxy]-2,2-dimethyl-propanenitrile] | 
28 | 0.0238 | CC(=O)O[C@H]1CC[C@H](Oc2nnc(C)cc2-c2ccn3nc(Nc4cc(C)nc(C)n4)cc3c2)CC1 [Example 487, [4-[4-[2-[(2,6-dimethylpyrimidin-4-yl)amino]pyrazolo[1,5-a]pyridin-5-yl]-6-methyl-pyridazin-3-yl]oxycyclohexyl] acetate] | 
